Structures are written as SMILES.

The subject of experiment [1] is Bacillus spizizenii. Put plainly: Antibacterial activity against Bacillus subtilis ATCC 6633 at 0.25 ug/disk after 24 hrs. It is filed as functional. The conditions noted are these: ATCC 6633, 24 h, read-out: IZ.
In experiment [2] the test system is Bacillus spizizenii. Put plainly: Antibacterial activity against Bacillus subtilis ATCC 6633 at 50 ug/disk after 24 hrs. Conditions: ATCC 6633, 24 h, read-out: IZ. Type of experiment: functional.

Turning to `O=C(N[C@H](CO)[C@H](O)c1ccc([N+](=O)[O-])cc1)C(Cl)Cl` [CHLORAMPHENICOL], in the experiment on Bacillus spizizenii [1], the zone of inhibition at 0.25 µg/disc is 28 mm. With `CC1(C)C[C@@H]2[C@@H]1[C@@H](O)C[C@@]1(C)CCC[C@]2(O)C1`, in the experiment with Bacillus spizizenii [2], the zone of inhibition at 50 µg/disc amounted to 10 mm.

Values taken from ChEMBL document CHEMBL3758115, “Bacaryolanes A-C, Rare Bacterial Caryolanes from a Mangrove Endophyte” (2015).
